US10597388B2, “Pyridazinone herbicides” (FMC CORPORATION, priority 2014, dated 2020)

Columns and labels:
Assay in all cases: Test D controlled growth environment herbicide test, pre- and postemergence
Assay type in all cases: in vivo
[1] = system: Russian thistle (Salsola kali)
Text: (§1) Seeds of plant species selected from bluegrass (annual bluegrass, Poa annua), blackgrass (Alopecurus myosuroides), Canada thistle (Cirsium arvense), canarygrass (Phalaris minor), chickweed (common chickweed, Stellaria media), geranium, cutleaf (cutleaf geranium, Geranium dissectum), galium (catchweed bedstraw, Galium aparine), bromegrass, downy (downy bromegrass, Bromus tectorum), field poppy (Papaver rhoeas), field violet (Viola arvensis), foxtail, green (green foxtail, Setaria viridis), deadnettle (henbit deadnettle, Lamium amplexicaule), ryegrass, Italian (Italian ryegrass, Lolium multiflorum), kochia (Kochia scoparia), lambsquarters (Chenopodium album), oilseed rape (Brassica napus), pigweed (Amaranthus retroflexus), chamomile (scentless chamomile, Matricaria inodora), Russian thistle (Salsola kali), speedwell (bird's-eye speedwell, Veronica persica), barley, spring (spring barley, Hordeum vulgare), wheat, spring (spring wheat, Triticum aestivum), buckwheat, wild (wild buckwheat, Polygonum convolvulus), mustard, wild (wild mustard, Sinapis arvensis), oat, wild (wild oat, Avena fatua), radish, wild (wild radish, Raphanus raphanistrum), windgrass (Apera spica-venti), barley, winter (winter barley, Hordeum vulgare), and wheat, winter (winter wheat, Triticum aestivum) were planted into a silt loam soil and treated preemergence with test chemicals formulated in a non-phytotoxic solvent mixture which included a surfactant.
(§2) At the same time, these species were planted in pots containing Redi-Earth® planting medium (Scotts Company, 14111 Scottslawn Road, Marysville, Ohio 43041) comprising spaghnum peat moss, vermiculite, wetting agent and starter nutrients and treated with postemergence applications of the test chemicals formulated in the same manner. Plants ranged in height from 2 to 18 cm (1- to 4-leaf stage). Treated plants and controls were maintained in a controlled growth environment for 14 to 21 d after which time all species were compared to controls and visually evaluated. Plant response ratings, summarized in Table D, are based on a scale of 0 to 100 where 0 is no effect and 100 is complete control. A dash (-) response means no test result.

[2] = system: barley, spring (spring barley, Hordeum vulgare)
Text: as §1, §2

[3] = system: chamomile (scentless chamomile, Matricaria inodora)
Text: as §1, §2

[4] = system: chickweed (common chickweed, Stellaria media)
Text: as §1, §2

[5] = system: deadnettle (henbit deadnettle, Lamium amplexicaule)
Text: as §1, §2

[6] = system: field poppy (Papaver rhoeas)
Text: as §1, §2

[7] = system: field violet (Viola arvensis)
Text: as §1, §2

kochia (Kochia scoparia) = system: kochia (Kochia scoparia)
Text: as §1, §2

[8] = system: mustard, wild (wild mustard, Sinapis arvensis)
Text: as §1, §2

[9] = system: oat, wild (wild oat, Avena fatua)
Text: as §1, §2

[10] = system: oilseed rape (Brassica napus)
Text: as §1, §2

[11] = system: radish, wild (wild radish, Raphanus raphanistrum)
Text: as §1, §2

[12] = system: speedwell (bird's-eye speedwell, Veronica persica)
Text: as §1, §2

[13] = system: wheat, winter (winter wheat, Triticum aestivum)
Text: as §1, §2

[14] = Postemergence, 31 g ai/ha, scale 0 to 100 (0 no effect, 100 complete control)
[15] = Postemergence, 125 g ai/ha, visual rating on scale 0 (no effect) to 100 (complete control), 14 to 21 d
[16] = Postemergence, 250 g ai/ha, scale 0 to 100 (0 no effect, 100 complete control)
[17] = postemergence, 62 g ai/ha, scale 0 to 100, 0 no effect, 100 complete control

Cc1cc(C)c2ccccc2c1-c1c(O)c(C)nn(C)c1=O [Compound 21]
Russian Thistle plant response rating [1, 14]: 70
Plant response rating, Russian Thistle [1, 15]: 80
Plant response rating, Russian Thistle [1, 16]: 85
Plant response rating, Russian Thistle [1, 17]: 75
Plant response rating, Barley, Spring [2, 14]: 0
Plant response rating, Barley, Spring [2, 15]: 10
Plant response rating, Barley, Spring [2, 16]: 30
Plant response rating, Barley, Spring [2, 17]: 5
Chamomile plant response rating [3, 14]: 90
Plant response rating, Chamomile [3, 15]: 100
Plant response rating, Chamomile [3, 16]: 100
Plant response rating, Chamomile [3, 17]: 95
Chickweed plant response rating [4, 14]: 90
Plant response rating, Chickweed [4, 15]: 100
Plant response rating, Chickweed [4, 16]: 100
Plant response rating, Chickweed [4, 17]: 100
Deadnettle plant response rating [5, 14]: 90
Plant response rating, Deadnettle [5, 15]: 95
Plant response rating, Deadnettle [5, 16]: 100
Plant response rating, Deadnettle [5, 17]: 100
Field Poppy plant response rating [6, 14]: 85
Plant response rating, Field Poppy [6, 15]: 100
Plant response rating, Field Poppy [6, 16]: 100
Plant response rating, Field Poppy [6, 17]: 100
Field Violet plant response rating [7, 14]: 95
Plant response rating, Field Violet [7, 15]: 100
Plant response rating, Field Violet [7, 16]: 100
Plant response rating, Field Violet [7, 17]: 95
Kochia plant response rating (kochia (Kochia scoparia); [14]): 35
Plant response rating, Kochia (kochia (Kochia scoparia); [15]): 75
Plant response rating, Kochia (kochia (Kochia scoparia); [16]): 85
Plant response rating, Kochia (kochia (Kochia scoparia); [17]): 45
Mustard, Wild plant response rating [8, 14]: 100
Plant response rating, Mustard, Wild [8, 15]: 100
Plant response rating, Mustard, Wild [8, 16]: 100
Plant response rating, Mustard, Wild [8, 17]: 100
Oat, Wild plant response rating [9, 14]: 80
Plant response rating, Oat, Wild [9, 15]: 85
Plant response rating, Oat, Wild [9, 16]: 100
Plant response rating, Oat, Wild [9, 17]: 85
Oilseed Rape plant response rating [10, 14]: 80
Plant response rating, Oilseed Rape [10, 15]: 100
Plant response rating, Oilseed Rape [10, 16]: 100
Plant response rating, Oilseed Rape [10, 17]: 100
Radish, Wild plant response rating [11, 14]: 95
Plant response rating, Radish, Wild [11, 15]: 100
Plant response rating, Radish, Wild [11, 16]: 100
Plant response rating, Radish, Wild [11, 17]: 100
Speedwell plant response rating [12, 14]: 100
Plant response rating, Speedwell [12, 15]: 100
Plant response rating, Speedwell [12, 16]: 100
Plant response rating, Speedwell [12, 17]: 100
Wheat, Winter plant response rating [13, 14]: 20
Plant response rating, Wheat, Winter [13, 15]: 35
Plant response rating, Wheat, Winter [13, 16]: 40
Plant response rating, Wheat, Winter [13, 17]: 25
